Laboratory results taken from publication PMC12217461 (Antimicrobial Agents and Chemotherapy, 2025).

Experiments:
Format in all cases: cell-based
E. coli IMP-2 = test: MIC broth microdilution, recombinant E. coli; settings: Escherichia coli, IMP2; IMP-2-like; TAN/XER fixed at 4 µg/mL, XER 8 µg/mL in MEM-XER; read-out: Minimal inhibitory concentration
P. aeruginosa ATCC 27853 = test: microbe, parasite or virus in culture; settings: Pseudomonas aeruginosa, ATCC27853; QC 4; no acquired β-lactamase; TAN/XER fixed at 4 µg/mL, XER 8 µg/mL in MEM-XER; read-out: Minimal inhibitory concentration
Protocol: (§1) To assess the inhibitory potency of XER, susceptibility testing was performed by broth microdilution method, determining the minimal inhibitory concentrations (MICs) of different antibiotics or antibiotic plus β-lactamase inhibitor combinations, including cefepime (FEP), imipenem (IPM), meropenem (MEM), and their combinations with XER (FEP-XER, IPM-XER, and MEM-XER). All data obtained with XER-based combinations were compared with data with TAN-based combinations, FEP-TAN, IPM-TAN, and MEM-TAN ([16]). FEP was purchased from Sigma-Aldrich (Saint-Louis, USA), whereas MEM was from HuiChem (Shanghai, China). […] MICs were determined in triplicate in cation-adjusted Mueller-Hinton (MH) broth (Bio-Rad, Marnes-la-Coquette, France) according to the CLSI guidelines ([53]). The results were interpreted according to the decrease in MIC value for the same antibiotic or combination of the corresponding recombinant strain producing the MBL enzyme. […] In a recent phase I clinical evaluation, XER was combined with cefiderocol. However, as this latter β-lactam substrate is known to be poorly hydrolyzed by IMP enzymes, it was not considered for the evaluation of XER inhibitory activity in this study. Instead, carbapenems were used as a substrate to evaluate the β-lactamase IMP activity in the presence or absence of XER and TAN, as it was deemed more specific for the IMP carbapenemase activity.

[1] = tested on: Escherichia coli NCTC 13353; test: microbe, parasite or virus in culture; settings: NCTC13353, read-out: Minimal inhibitory concentration
Protocol: as §1

[2] = tested on: Klebsiella pneumoniae ATCC BAA-2814; test: microbe, parasite or virus in culture; settings: ATCCBAA2814, read-out: Minimal inhibitory concentration
Protocol: as §1

[3] = tested on: Escherichia coli ATCC 25922; test: microbe, parasite or virus in culture; settings: ATCC25922, QC 3, no acquired β-lactamase, TAN/XER fixed at 4 µg/mL, XER 8 µg/mL in MEM-XER, read-out: Minimal inhibitory concentration
Protocol: as §1

E. coli TOP10 = test: microbe, parasite or virus in culture; settings: Escherichia coli, no MBL, TAN/XER fixed at 4 µg/mL, XER 8 µg/mL in MEM-XER, read-out: Minimal inhibitory concentration
From the text: (§2) Genes encoding different acquired IMP-like enzymes suspected to be resistant to XER (blaIMP-6, blaIMP-7, blaIMP-10, blaIMP-14, blaIMP-26, blaIMP-34, and blaIMP-59) were amplified by PCR, and corresponding amplicons were cloned into plasmid pUCP24 and expressed in E. coli TOP10. The following recombinant E. coli strains producing IMP-1, IMP-4, IMP-19, and NDM-1 were used from a previous study ([16]). […] For that purpose, a list of primers was designed and provided as Table S1. […] The nomenclature used in this study was according to the BBL sequence numbering ([52]).
as §1

E. coli IMP-26 = test: MIC broth microdilution, recombinant E. coli; settings: Escherichia coli, IMP26; IMP-4 like, V67F; TAN/XER fixed at 4 µg/mL, XER 8 µg/mL in MEM-XER; read-out: Minimal inhibitory concentration
From the text: as §2, §1

E. coli IMP-1 = test: MIC broth microdilution, recombinant E. coli; settings: Escherichia coli, IMP1; IMP-1-like; TAN/XER fixed at 4 µg/mL, XER 8 µg/mL in MEM-XER; read-out: Minimal inhibitory concentration
From the text: as §2, §1

[4] = tested on: E. coli IMP-14 Mutant 1 (S65G); test: MIC broth microdilution, recombinant E. coli; settings: Escherichia coli; IMP-14 S65G; TAN/XER fixed at 4 µg/mL, XER 8 µg/mL in MEM-XER; read-out: Minimal inhibitory concentration
From the text: as §2, §1

E. coli NDM-1 = test: MIC broth microdilution, recombinant E. coli; settings: Escherichia coli, NDM1; NDM-1-like; TAN/XER fixed at 4 µg/mL, XER 8 µg/mL in MEM-XER; read-out: Minimal inhibitory concentration
From the text: as §2, §1

E. coli IMP-4 = test: MIC broth microdilution, recombinant E. coli; settings: Escherichia coli, IMP4; IMP-4 like; TAN/XER fixed at 4 µg/mL, XER 8 µg/mL in MEM-XER; read-out: Minimal inhibitory concentration
From the text: as §2, §1

E. coli IMP-14 = test: MIC broth microdilution, recombinant E. coli; settings: Escherichia coli, IMP14; IMP-2-like, multiple substitutions; TAN/XER fixed at 4 µg/mL, XER 8 µg/mL in MEM-XER; read-out: Minimal inhibitory concentration
From the text: as §2, §1

[5] = tested on: E. coli IMP-14 Mutant 3 (N178S); test: MIC broth microdilution, recombinant E. coli; settings: Escherichia coli; IMP-14 N178S; TAN/XER fixed at 4 µg/mL, XER 8 µg/mL in MEM-XER; read-out: Minimal inhibitory concentration
From the text: as §2, §1

[6] = tested on: E. coli IMP-14 Mutant 5 (Y233N); test: MIC broth microdilution, recombinant E. coli; settings: Escherichia coli; IMP-14 Y233N; TAN/XER fixed at 4 µg/mL, XER 8 µg/mL in MEM-XER; read-out: Minimal inhibitory concentration
From the text: as §2, §1

E. coli IMP-59 = test: MIC broth microdilution, recombinant E. coli; settings: Escherichia coli, IMP59; IMP-4 like, N233Y; TAN/XER fixed at 4 µg/mL, XER 8 µg/mL in MEM-XER; read-out: Minimal inhibitory concentration
From the text: as §2, §1

E. coli IMP-10 = test: MIC broth microdilution, recombinant E. coli; settings: Escherichia coli, IMP10; IMP-1-like, V67F; TAN/XER fixed at 4 µg/mL, XER 8 µg/mL in MEM-XER; read-out: Minimal inhibitory concentration
From the text: as §2, §1

[7] = tested on: E. coli IMP-14 Mutant 2 (H174N); test: MIC broth microdilution, recombinant E. coli; settings: Escherichia coli; IMP-14 H174N; TAN/XER fixed at 4 µg/mL, XER 8 µg/mL in MEM-XER; read-out: Minimal inhibitory concentration
From the text: as §2, §1

CO/N=C(\C(=O)N[C@@H]1C(=O)N2C(C(=O)[O-])=C(C[N+]3(C)CCCC3)CS[C@H]12)c1csc(N)n1 [FEP, cefepime]
MIC (E. coli IMP-2): 8 µg/mL | MIC (P. aeruginosa ATCC 27853): 1 µg/mL | MIC [1]: 256 µg/mL | MIC [2]: > 256 µg/mL | MIC [3]: ≤ 0.25 µg/mL | MIC (E. coli TOP10): ≤ 0.25 µg/mL | MIC (E. coli IMP-26): 32 µg/mL | MIC (E. coli IMP-1): 32 µg/mL | MIC [4]: 128 µg/mL | MIC (E. coli NDM-1): 4 µg/mL | MIC (E. coli IMP-4): 8 µg/mL | MIC (E. coli IMP-14): 64 µg/mL | MIC [5]: 128 µg/mL | MIC [6]: 16 µg/mL | MIC (E. coli IMP-59): 8 µg/mL | MIC (E. coli IMP-10): 64 µg/mL | MIC [7]: 64 µg/mL

C[C@@H](O)[C@H]1C(=O)N2C(C(=O)O)=C(SCCN=CN)C[C@H]12 [IPM, imipenem]
MIC (E. coli IMP-2): 0.5 µg/mL | MIC (P. aeruginosa ATCC 27853): 1 µg/mL | MIC [1]: ≤ 0.25 µg/mL | MIC [2]: 16 µg/mL | MIC [3]: ≤ 0.25 µg/mL | MIC (E. coli TOP10): ≤ 0.25 µg/mL | MIC (E. coli IMP-26): 8 µg/mL | MIC (E. coli IMP-1): 4 µg/mL | MIC [4]: 8 µg/mL | MIC (E. coli NDM-1): 2 µg/mL | MIC (E. coli IMP-4): 1 µg/mL | MIC (E. coli IMP-14): 1 µg/mL | MIC [5]: 2 µg/mL | MIC [6]: 32 µg/mL | MIC (E. coli IMP-59): 0.5 µg/mL | MIC (E. coli IMP-10): 16 µg/mL | MIC [7]: 2 µg/mL

C[C@@H](O)[C@H]1C(=O)N2C(C(=O)O)=C(S[C@@H]3CN[C@H](C(=O)N(C)C)C3)[C@H](C)[C@H]12 [MEM, meropenem]
MIC (E. coli IMP-2): 1 µg/mL | MIC (P. aeruginosa ATCC 27853): 0.5 µg/mL | MIC [1]: ≤ 0.25 µg/mL | MIC [2]: 64 µg/mL | MIC [3]: ≤ 0.25 µg/mL | MIC (E. coli TOP10): ≤ 0.25 µg/mL | MIC (E. coli IMP-26): 128 µg/mL | MIC (E. coli IMP-1): 8 µg/mL | MIC [4]: 8 µg/mL | MIC (E. coli NDM-1): 2 µg/mL | MIC (E. coli IMP-4): 8 µg/mL | MIC (E. coli IMP-14): 4 µg/mL | MIC [5]: 8 µg/mL | MIC [6]: 1 µg/mL | MIC (E. coli IMP-59): 8 µg/mL | MIC (E. coli IMP-10): 64 µg/mL | MIC [7]: 4 µg/mL
